Data on 6 compounds can be found in the supplement of paper PMC11061612.

What all share (assay): Bliss excess, mean over the matrix (fraction); higher = more synergy
Assay [1] deals with COLO-678 (Colorectal Carcinoma). Put shortly: (§1)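 After 24 hours at 37°C and 5% CO2 in 1536-well plates, cells in DMEM/F12 or RPMI plus 10% FBS received two-drug dose matrices for 72 hours. Viability came from CellTiter-Glo 2.0 luminescence and was scaled as inhibition, anchored at 0 by vehicle wells and at 1 by blank wells. Combination Emax is taken as the second-highest inhibition in the matrix, and Bliss excess as the observed combination effect less EA + EB − EA·EB, with EA and EB the single-agent effects.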

Another assay relates to CHP-212 (Neuroblastoma). Put shortly:
as §1

Assay [2] has as its system HDQ-P1 (Breast Carcinoma). The method, boiled down: as §1
Assay [3] has as its system MS751 (Cervical Carcinoma). The method, boiled down:
as §1

The subject of assay [4] is BL-41 (Burkitt's Lymphoma). Put shortly: as §1
The test system of the next assay is ES1 (Ewing's Sarcoma). The method, boiled down:
as §1

Assay [5] relates to BFTC-905 (Bladder Carcinoma). Put shortly:
as §1

The subject of assay [6] is L-540 (Hodgkin's Lymphoma). The method, boiled down: as §1
A further assay concerns WIL2-NS (Non-Cancerous). Put shortly: as §1
The subject of assay [7] is SW837 (Colorectal Carcinoma). The method, boiled down:
as §1

The subject of assay [8] is SU-DHL-8 (B-Cell Non-Hodgkin's Lymphoma). The method, boiled down:
as §1

For assay [9], the system named is KARPAS-45 (T-Lymphoblastic Leukemia). The method, boiled down:
as §1

Assay [10] concerns CAMA-1 (Breast Carcinoma). The method, boiled down: as §1
Assay [11] has as its system TOV-112D (Ovarian Carcinoma). The method, boiled down: as §1
A further assay deals with MEL-JUSO (Melanoma). The method, boiled down: as §1
Assay [12] has as its system SW1417 (Colorectal Carcinoma). The method, boiled down:
as §1

The test system of another assay is NCI-H2818 (Mesothelioma). Put shortly: as §1
For another assay, the system named is U251 (Low Grade Glioma). The method, boiled down:
as §1

Assay [13] relates to DND-41 (T-Lymphoblastic Leukemia). Put shortly: as §1
The test system of assay [14] is KM12 (Colorectal Carcinoma). Put shortly: as §1

Turning to `Cc1cc2ncnn2cc1Nc1ncc2c(n1)n(C1CCOCC1)c(=O)n2C` [AZD7648] + CN(C)CCCOc1ccc(-c2ccc3ncc4c(c3c2)n(C2CCOCC2)c(=O)n4C)cn1 [AZD0156] (first compound max 10 µM, 7x7, partner max 1 µM), the Bliss excess is -0.0231 in assay [1]; 0.0036 in the assay with CHP-212 (Neuroblastoma); 0.0157 in assay [2]; 0.0217 in assay [3]; 0.0154 in assay [4]; 0.0136 with ES1 (Ewing's Sarcoma). Besides, the Bliss excess in assay [5] was 0.0314; in assay [6] it was -0.0074; in the assay with WIL2-NS (Non-Cancerous) it was -0.0264; in assay [7], 0.0255; in assay [8], 0.016; in assay [9], -0.0274. In addition, the Bliss excess in [10] was -0.0238; in assay [11], 0.0307; in the assay with MEL-JUSO (Melanoma) it was -0.0029; in [12], -0.0262; in the assay with NCI-H2818 (Mesothelioma) it was -0.0055; with U251 (Low Grade Glioma), 0.0214. The Bliss excess was 0.0251 in [13] and 0.0312 in [14].
As to `Cc1cc2ncnn2cc1Nc1ncc2c(n1)n(C1CCOCC1)c(=O)n2C` [AZD7648] + C[C@@H]1COCCN1C2=NC(=NC(=C2)C3(CC3)[S@](=N)(=O)C)C4=C5C=CNC5=NC=C4 [AZD6738] (first compound max 10 µM, 7x7, partner max 10 µM), the Bliss excess is -0.0346 in assay [1]; -0.0035 in the assay on CHP-212 (Neuroblastoma); -0.0229 in assay [2]; 0.0606 in assay [3]; -0.0052 in assay [4]; -0.0001 in the assay with ES1 (Ewing's Sarcoma). In addition, the Bliss excess is 0.0081 in [5]; -0.0031 in assay [6]; 0.0015 with WIL2-NS (Non-Cancerous); -0.0077 in assay [7]; -0.0136 in [8]; 0.0129 in assay [9]. The Bliss excess was -0.0631 in assay [10]; 0.0024 in assay [11]; 0.0289 with MEL-JUSO (Melanoma); 0.0175 in assay [12]; 0.0738 in the assay with NCI-H2818 (Mesothelioma); 0.0581 with U251 (Low Grade Glioma). Also, the Bliss excess in assay [13] was -0.01; in assay [14], 0.0057.
With `Cc1cc2ncnn2cc1Nc1ncc2c(n1)n(C1CCOCC1)c(=O)n2C` [AZD7648] + O=C(c1cc(Cc2n[nH]c(=O)c3ccccc23)ccc1F)N1CCN(C(=O)C2CC2)CC1 [Olaparib] (first compound max 10 µM, 7x7, partner max 10 µM), the Bliss excess in assay [1] is -0.0177; in the assay with CHP-212 (Neuroblastoma), -0.0391; in assay [2] it was 0.0133; in assay [3], 0.0017; in [4], -0.0368; in the assay with ES1 (Ewing's Sarcoma), -0.0604. For the same compound, the Bliss excess in assay [5] was -0.0299; in assay [6] it was -0.0352; in the assay on WIL2-NS (Non-Cancerous), -0.0669; in [7] it was -0.0246; in assay [8], 0.0195; in assay [9], 0.0031. For the same compound, the Bliss excess in assay [10] is -0.054; in [11], -0.0285; with MEL-JUSO (Melanoma), -0.0264; in assay [12], -0.0597; with NCI-H2818 (Mesothelioma) it was -0.0776; with U251 (Low Grade Glioma) it was 0.0043. The Bliss excess was 0.0069 in assay [13] and -0.035 in assay [14].
Turning to `NC1(C(=O)N[C@@H](CCO)c2ccc(Cl)cc2)CCN(c2ncnc3[nH]ccc23)CC1` [Capivasertib] + CC(=O)c1c(C)c2cnc(Nc3ccc(N4CCNCC4)cn3)nc2n(C2CCCC2)c1=O [Palbociclib] (first compound max 10 µM, 7x7, partner max 10 µM), the Bliss excess in assay [1] was -0.0295; in the assay with CHP-212 (Neuroblastoma), 0.0311; in [2], -0.0092; in [3], -0.0222; in assay [4], -0.0275; in the assay on ES1 (Ewing's Sarcoma), 0.0697. In addition, the Bliss excess is 0.0048 in [5]; -0.0243 in assay [6]; -0.0049 with WIL2-NS (Non-Cancerous); -0.0531 in assay [7]; 0.0646 in [8]; 0.0327 in assay [9]. In addition, the Bliss excess in assay [10] is 0.052; in assay [11], 0.0029; in the assay with MEL-JUSO (Melanoma), -0.0137; in assay [12], 0.0067; with NCI-H2818 (Mesothelioma), -0.0025; with U251 (Low Grade Glioma), 0.0007. For the same compound, the Bliss excess in assay [13] is -0.0146; in assay [14] it was 0.0176.
In the case of `NC1(C(=O)N[C@@H](CCO)c2ccc(Cl)cc2)CCN(c2ncnc3[nH]ccc23)CC1` [Capivasertib] + CC(C)n1c(=O)n(C)c2cnc3cc(F)c(-c4ccc(OCCCN5CCCCC5)nc4)cc3c21 [AZD1390] (first compound max 10 µM, 7x7, partner max 0.3 µM), the Bliss excess in assay [1] is -0.0754; with CHP-212 (Neuroblastoma) it was -0.0965; in assay [2] it was -0.0442; in assay [3], 0.0033; in assay [4], -0.193; with ES1 (Ewing's Sarcoma), -0.111. Besides, the Bliss excess is -0.0329 in [5]; 0.0167 in assay [6]; -0.0379 in the assay with WIL2-NS (Non-Cancerous); -0.0461 in assay [7]; -0.0156 in assay [8]; -0.0374 in assay [9]. The Bliss excess is -0.0558 in [10]; -0.0276 in assay [11]; -0.0784 in the assay on MEL-JUSO (Melanoma); -0.0394 in assay [12]; -0.0447 in the assay on NCI-H2818 (Mesothelioma); -0.0549 in the assay on U251 (Low Grade Glioma). Further, the results for the Bliss excess in assay [13] and in assay [14] were -0.0595 and -0.0399, respectively.
For `NC1(C(=O)N[C@@H](CCO)c2ccc(Cl)cc2)CCN(c2ncnc3[nH]ccc23)CC1` [Capivasertib] + CCN(CCO)CCCOc1ccc2c(Nc3cc(CC(=O)Nc4cccc(F)c4)[nH]n3)ncnc2c1 [AZD2811] (first compound max 10 µM, 7x7, partner max 1 µM), the Bliss excess is -0.0218 in assay [1]; -0.008 with CHP-212 (Neuroblastoma); -0.0077 in assay [2]; 0.0515 in assay [3]; -0.123 in assay [4]; -0.0207 with ES1 (Ewing's Sarcoma). Besides, the Bliss excess in assay [5] is -0.0462; in assay [6] it was 0.0547; in the assay with WIL2-NS (Non-Cancerous), -0.0431; in [7] it was -0.0646; in assay [8], 0.0078; in assay [9], -0.0426. The Bliss excess was 0.0051 in assay [10]; 0.0175 in assay [11]; -0.0083 in the assay with MEL-JUSO (Melanoma); -0.0478 in [12]; -0.0676 in the assay on NCI-H2818 (Mesothelioma); 0.0469 with U251 (Low Grade Glioma). Further, the Bliss excess in assay [13] was 0.0071; in assay [14], -0.0303.
